Assay results reported in BindingDB's records for doi:10.1021/acschembio.6b00012 (Broad Institute, 2016).
pIC50: −log10 of the molar value.

Tests used:
Assay in all cases: HDAC Enzymatic Assay
Conditions in all cases: pH 7.4
Histone deacetylase 1 = Histone deacetylase 1 (Homo sapiens, UniProt Q13547)
Method: (§1) Briefly, this fluorogenic assays uses an acetylated lysine tripeptide substrate, amide-linked to a fluorescently quenched aminocoumarin (AMC). Enzyme reactions were run in 50 mM HEPES, 100 mM KCl, 0.001% (v/v) Tween-20, 0.05% (w/v) BSA, pH 7.4. The appropriate substrate concentration for each HDAC was determined using their corresponding Km values. Km values were determined by monitoring the increase of fluorescence of each HDAC at varying substrate concentrations. The increase in fluorescence units was plotted versus substrate concentration. Assays corresponding to HDACs 4, 5, 7, 8, 9 involved a trifluoroacetylated lysine substrate as described in Bradner et al, while HDACs 1, 2, 3, and 6 used an acetyl-Leu-Gly-acetyl-Lys tripeptide as the substrate. Reactions were carriedout in 384-well plates and fluorescence was measured using a multi-label plate reader and plate stacker (Envision, Perkin-Elmer).

Histone deacetylase 5 = Histone deacetylase 5 (Homo sapiens, UniProt Q9UQL6)
Histone deacetylase 5, sequence (Q9UQL6 whole entry): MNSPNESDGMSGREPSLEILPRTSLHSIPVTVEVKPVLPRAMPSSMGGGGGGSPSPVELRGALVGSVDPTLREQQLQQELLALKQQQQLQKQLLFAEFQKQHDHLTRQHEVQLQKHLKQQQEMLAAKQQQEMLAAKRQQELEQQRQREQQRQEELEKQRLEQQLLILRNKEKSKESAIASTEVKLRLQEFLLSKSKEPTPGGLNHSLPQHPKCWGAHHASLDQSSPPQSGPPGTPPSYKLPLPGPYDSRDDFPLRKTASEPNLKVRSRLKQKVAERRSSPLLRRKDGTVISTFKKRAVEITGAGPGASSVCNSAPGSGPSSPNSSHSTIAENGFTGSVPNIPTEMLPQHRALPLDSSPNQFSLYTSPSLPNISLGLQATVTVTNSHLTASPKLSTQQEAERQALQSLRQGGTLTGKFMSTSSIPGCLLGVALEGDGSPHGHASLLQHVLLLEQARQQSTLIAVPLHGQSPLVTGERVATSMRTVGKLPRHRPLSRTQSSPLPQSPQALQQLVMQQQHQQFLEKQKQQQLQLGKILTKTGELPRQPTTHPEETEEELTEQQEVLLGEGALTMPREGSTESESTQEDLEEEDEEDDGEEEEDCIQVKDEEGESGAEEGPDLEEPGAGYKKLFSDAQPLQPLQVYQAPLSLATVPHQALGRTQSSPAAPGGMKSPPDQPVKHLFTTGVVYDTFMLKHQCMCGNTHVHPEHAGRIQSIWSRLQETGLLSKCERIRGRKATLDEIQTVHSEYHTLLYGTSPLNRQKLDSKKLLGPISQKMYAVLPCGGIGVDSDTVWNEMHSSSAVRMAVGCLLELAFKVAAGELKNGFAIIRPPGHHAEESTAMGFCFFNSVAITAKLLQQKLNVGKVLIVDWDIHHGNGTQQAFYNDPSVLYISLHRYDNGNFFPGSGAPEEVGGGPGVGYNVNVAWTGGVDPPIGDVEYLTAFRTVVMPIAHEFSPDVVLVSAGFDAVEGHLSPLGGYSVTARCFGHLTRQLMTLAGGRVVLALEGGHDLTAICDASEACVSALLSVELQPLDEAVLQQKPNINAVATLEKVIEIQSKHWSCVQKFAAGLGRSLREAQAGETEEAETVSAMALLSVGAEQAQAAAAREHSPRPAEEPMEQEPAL
Method: as §1

Histone deacetylase 4 = Histone deacetylase 4 (Homo sapiens, UniProt P56524)
Histone deacetylase 4, sequence (P56524 whole entry): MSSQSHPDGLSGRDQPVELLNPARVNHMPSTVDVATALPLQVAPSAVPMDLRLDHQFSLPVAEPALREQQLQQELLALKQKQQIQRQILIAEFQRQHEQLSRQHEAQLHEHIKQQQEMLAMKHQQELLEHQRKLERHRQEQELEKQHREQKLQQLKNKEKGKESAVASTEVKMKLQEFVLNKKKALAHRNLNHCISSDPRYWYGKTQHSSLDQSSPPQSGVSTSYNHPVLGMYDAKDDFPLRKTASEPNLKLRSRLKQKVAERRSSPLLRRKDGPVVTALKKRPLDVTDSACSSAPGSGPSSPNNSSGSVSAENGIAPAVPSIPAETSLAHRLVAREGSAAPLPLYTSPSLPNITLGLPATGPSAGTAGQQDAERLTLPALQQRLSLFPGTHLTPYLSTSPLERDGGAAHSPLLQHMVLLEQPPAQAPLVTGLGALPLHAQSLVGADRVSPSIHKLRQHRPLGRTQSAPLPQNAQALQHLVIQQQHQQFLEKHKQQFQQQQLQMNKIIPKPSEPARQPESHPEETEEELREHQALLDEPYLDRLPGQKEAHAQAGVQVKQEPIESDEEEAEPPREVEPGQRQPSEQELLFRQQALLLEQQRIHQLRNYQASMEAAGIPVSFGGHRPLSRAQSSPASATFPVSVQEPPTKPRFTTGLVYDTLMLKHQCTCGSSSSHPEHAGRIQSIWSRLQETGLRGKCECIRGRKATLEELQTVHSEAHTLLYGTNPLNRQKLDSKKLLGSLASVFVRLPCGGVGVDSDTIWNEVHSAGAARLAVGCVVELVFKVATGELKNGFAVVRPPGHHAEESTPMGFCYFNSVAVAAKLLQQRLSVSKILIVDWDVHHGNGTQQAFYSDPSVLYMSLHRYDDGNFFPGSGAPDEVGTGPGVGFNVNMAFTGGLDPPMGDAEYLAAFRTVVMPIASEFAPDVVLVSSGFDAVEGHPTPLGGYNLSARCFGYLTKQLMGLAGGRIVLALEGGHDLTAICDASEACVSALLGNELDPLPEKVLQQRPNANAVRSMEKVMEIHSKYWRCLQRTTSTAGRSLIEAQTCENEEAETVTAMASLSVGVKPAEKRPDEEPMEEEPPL
Method: as §1

Histone deacetylase 7 = target: T1, Histone deacetylase 7 (Homo sapiens, UniProt Q8WUI4)
T1 sequence (Q8WUI4 whole entry): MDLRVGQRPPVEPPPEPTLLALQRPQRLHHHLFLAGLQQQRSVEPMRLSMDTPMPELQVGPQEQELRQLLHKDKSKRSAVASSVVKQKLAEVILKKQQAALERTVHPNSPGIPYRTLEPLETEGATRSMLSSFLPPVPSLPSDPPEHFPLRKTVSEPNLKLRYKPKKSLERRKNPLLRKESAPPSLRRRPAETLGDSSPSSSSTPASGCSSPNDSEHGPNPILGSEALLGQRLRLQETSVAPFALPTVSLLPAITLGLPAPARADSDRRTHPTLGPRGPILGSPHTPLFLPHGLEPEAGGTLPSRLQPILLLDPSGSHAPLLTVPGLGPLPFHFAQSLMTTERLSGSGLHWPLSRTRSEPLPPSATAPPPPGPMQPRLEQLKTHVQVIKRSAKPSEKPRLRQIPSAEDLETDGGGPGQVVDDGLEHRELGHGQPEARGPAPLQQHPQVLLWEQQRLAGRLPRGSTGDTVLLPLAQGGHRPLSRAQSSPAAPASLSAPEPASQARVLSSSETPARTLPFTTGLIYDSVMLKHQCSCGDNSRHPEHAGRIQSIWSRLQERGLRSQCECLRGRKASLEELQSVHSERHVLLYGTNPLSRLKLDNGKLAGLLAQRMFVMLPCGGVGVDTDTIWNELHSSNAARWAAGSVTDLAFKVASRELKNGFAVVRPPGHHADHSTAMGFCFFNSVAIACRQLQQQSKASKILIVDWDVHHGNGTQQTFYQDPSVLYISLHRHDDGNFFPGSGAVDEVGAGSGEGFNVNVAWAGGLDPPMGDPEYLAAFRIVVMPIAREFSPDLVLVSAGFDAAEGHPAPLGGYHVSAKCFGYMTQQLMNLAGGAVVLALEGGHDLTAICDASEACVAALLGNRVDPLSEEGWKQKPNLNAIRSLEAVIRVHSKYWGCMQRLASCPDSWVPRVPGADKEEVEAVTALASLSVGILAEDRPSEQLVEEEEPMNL
Method: as §1

Histone deacetylase 3 = Histone deacetylase 3 (Homo sapiens, UniProt O15379)
Histone deacetylase 3, sequence (O15379 whole entry): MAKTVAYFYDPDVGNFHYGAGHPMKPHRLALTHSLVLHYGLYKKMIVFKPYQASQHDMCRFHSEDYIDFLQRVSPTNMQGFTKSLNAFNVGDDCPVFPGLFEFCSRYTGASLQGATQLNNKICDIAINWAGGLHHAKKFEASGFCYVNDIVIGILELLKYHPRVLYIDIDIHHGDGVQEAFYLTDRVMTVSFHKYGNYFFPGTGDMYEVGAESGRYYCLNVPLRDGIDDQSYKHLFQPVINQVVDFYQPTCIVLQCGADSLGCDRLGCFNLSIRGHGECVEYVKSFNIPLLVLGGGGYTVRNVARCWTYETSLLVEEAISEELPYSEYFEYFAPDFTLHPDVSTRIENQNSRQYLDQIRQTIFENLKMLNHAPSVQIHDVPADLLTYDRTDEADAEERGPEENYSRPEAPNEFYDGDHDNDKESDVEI
Method: as §1

Histone deacetylase 9 = Histone deacetylase 9 (Homo sapiens, UniProt Q9UKV0)
Histone deacetylase 9, sequence (Q9UKV0 whole entry): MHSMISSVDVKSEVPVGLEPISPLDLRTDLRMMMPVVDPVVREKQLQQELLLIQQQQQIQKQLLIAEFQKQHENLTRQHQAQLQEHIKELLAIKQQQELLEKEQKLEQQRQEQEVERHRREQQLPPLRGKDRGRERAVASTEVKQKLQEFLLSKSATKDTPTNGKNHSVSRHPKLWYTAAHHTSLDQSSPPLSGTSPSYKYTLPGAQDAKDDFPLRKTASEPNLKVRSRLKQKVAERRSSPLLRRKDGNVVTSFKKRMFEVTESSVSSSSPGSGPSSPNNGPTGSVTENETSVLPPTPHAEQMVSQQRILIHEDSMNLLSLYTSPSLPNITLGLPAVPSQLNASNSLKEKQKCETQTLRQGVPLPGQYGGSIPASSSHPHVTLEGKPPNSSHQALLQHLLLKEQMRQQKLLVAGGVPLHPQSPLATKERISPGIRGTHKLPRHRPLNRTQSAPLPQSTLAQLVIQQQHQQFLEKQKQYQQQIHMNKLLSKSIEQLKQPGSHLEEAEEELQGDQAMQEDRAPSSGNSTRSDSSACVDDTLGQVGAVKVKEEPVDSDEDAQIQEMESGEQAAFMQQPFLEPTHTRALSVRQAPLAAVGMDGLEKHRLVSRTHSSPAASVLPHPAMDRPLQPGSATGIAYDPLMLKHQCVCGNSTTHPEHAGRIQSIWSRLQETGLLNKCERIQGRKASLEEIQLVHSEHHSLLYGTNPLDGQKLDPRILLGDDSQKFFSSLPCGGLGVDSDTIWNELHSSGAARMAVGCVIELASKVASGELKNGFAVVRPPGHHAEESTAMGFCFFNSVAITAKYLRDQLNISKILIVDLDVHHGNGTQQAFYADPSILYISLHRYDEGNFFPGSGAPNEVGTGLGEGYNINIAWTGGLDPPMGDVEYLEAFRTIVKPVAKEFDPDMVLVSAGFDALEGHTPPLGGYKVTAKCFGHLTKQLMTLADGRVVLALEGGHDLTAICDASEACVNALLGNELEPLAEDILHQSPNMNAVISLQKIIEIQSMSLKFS
Method: as §1

Histone deacetylase 2 = Histone deacetylase 2 (Homo sapiens, UniProt Q92769)
Histone deacetylase 2, sequence (Q92769 whole entry): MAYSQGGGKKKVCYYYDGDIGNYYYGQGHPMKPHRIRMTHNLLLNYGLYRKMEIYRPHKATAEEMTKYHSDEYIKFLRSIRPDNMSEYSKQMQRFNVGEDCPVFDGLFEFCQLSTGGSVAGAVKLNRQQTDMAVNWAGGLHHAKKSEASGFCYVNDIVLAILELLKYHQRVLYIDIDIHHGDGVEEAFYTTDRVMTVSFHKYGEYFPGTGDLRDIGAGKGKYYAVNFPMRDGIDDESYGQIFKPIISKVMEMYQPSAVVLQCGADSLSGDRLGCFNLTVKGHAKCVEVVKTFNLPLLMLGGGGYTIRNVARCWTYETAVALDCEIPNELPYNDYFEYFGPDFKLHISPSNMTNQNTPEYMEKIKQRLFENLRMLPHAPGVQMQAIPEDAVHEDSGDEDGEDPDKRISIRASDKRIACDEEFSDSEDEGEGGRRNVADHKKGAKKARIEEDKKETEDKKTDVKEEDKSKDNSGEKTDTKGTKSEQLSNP
Method: as §1

[1] = target: Histone deacetylase 8 [R223M] (Homo sapiens, UniProt Q9BY41, R223M)
Histone deacetylase 8 [R223M], sequence (Q9BY41 whole entry R223W): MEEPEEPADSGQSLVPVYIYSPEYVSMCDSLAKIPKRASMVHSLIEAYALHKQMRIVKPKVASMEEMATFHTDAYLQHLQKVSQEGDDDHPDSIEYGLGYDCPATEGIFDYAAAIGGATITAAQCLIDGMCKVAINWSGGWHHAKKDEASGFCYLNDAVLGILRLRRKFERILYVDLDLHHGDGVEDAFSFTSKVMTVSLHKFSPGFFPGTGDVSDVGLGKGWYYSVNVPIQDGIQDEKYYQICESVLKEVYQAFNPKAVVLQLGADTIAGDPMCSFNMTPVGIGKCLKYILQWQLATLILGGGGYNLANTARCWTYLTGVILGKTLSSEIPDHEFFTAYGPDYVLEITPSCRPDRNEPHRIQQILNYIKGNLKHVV
Method: as §1

Histone deacetylase 1, sequence (Q13547 whole entry): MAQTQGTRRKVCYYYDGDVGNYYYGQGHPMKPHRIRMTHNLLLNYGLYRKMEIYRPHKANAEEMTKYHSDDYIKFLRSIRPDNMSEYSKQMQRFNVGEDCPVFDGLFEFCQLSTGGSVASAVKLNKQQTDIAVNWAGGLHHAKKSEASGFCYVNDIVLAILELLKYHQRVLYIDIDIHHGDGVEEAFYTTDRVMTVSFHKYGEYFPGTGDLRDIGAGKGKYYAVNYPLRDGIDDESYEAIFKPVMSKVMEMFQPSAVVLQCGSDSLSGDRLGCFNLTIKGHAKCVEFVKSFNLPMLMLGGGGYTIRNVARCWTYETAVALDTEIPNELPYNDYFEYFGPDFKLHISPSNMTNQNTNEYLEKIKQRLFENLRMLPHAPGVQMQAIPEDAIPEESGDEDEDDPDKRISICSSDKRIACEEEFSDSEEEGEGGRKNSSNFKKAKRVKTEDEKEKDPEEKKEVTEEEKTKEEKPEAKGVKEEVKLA

Q: With `CCN1CCN(C(c2cccnc2)c2cc(Cl)c3cccnc3c2O)CC1` (stereo not drawn) [5-chloranyl-7-[(4-ethylpiperazin-1-yl)-pyridin-3-yl-methyl]quinolin-8-ol] as the molecule, how does the pIC50 (Histone deacetylase 1) read?
A: The pIC50 was 4.39.

Q: And the pIC50 (Histone deacetylase 5)?
A: Its pIC50 is 6.07.

Q: What about the pIC50 (Histone deacetylase 4) of the same molecule?
A: The pIC50 was 4.86.

Q: What about the pIC50 (Histone deacetylase 7) of the same molecule?
A: Its pIC50 is 5.07.

Q: What about the pIC50 (Histone deacetylase 3) of the same molecule?
A: Its pIC50 is 4.19.

Q: And the pIC50 (Histone deacetylase 9)?
A: The pIC50 was 5.73.

Q: And the pIC50 (Histone deacetylase 2)?
A: The pIC50 was 4.17.

Q: And the pIC50 [1]?
A: Its pIC50 is 5.41.
